Target: T1, human NK1 receptor (Homo sapiens, UniProt P25103)
T1 construct: expressed in transfected cells; host or cells: CHO cells infected with the Semliki virus expression system; membrane suspension used
Assay: [3H]substance P binding at human NK1 receptors in CHO cells
Details: affinity to the NK-1 receptor; [3H]substance P 0.6 nM displacement, CHO cell membranes, 60 min at room temperature
Method: The affinity of test compounds for the NK1 receptor was evaluated at human NK1 receptors in CHO cells infected with the human NK1 receptor (using the Semliki virus expression system) and radiolabelled with [^3H]substance P (final concentration 0.6 nM). Binding assays were performed in HEPES buffer (50 mM, pH 7.4) containing BSA (0.04%) leupeptin (8 μg/ml), MnCl2 (3 mM) and phosphoramidon (2 μM). Binding assays consisted of 250 μl of membrane suspension (1.25×10^5 cells/assay tube), […] of buffer of displacing agent and 125 μl of [^3H]substance P. Displacement curves were determined with at least seven concentrations of the compound. The assay tubes were incubated for 60 min at room temperature after which time the tube contents were rapidly filtered under vacuum through GF/C filters presoaked for 60 min with PEI (0.3%) with 2×2 ml washes of HEPES buffer (50 mM, pH 7.4). The radioactivity retained on the filters was measured by scintillation counting. All assays were performed in triplicate in at least 2 separate experiments.

T1 sequence (P25103 whole entry): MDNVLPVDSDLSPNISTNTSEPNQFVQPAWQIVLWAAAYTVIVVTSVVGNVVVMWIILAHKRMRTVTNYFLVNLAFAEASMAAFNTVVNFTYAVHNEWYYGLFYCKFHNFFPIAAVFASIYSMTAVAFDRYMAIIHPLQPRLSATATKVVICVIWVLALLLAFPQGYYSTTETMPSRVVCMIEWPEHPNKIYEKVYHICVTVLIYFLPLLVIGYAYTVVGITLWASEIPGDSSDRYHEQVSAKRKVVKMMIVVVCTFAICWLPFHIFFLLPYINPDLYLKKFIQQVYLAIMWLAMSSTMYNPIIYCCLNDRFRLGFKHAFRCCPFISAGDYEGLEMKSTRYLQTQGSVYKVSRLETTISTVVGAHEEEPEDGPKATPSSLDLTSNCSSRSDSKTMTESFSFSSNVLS

Row | Compound | Ki [nM]
1 | O=C1NCC(c2cccc(Cl)c2)C2(CCN(C(=O)c3cc(C(F)(F)F)cc(C(F)(F)F)c3)CC2)O1 (racemic) [Example 1, (5RS)-9-(3,5-bis-trifluoromethyl-benzoyl)-5-(3-chloro-phenyl)-1-oxa-3,9-diaza-spiro[5.5]undecan-2-one] | 5.13
2 | O=C1NCC(c2ccc(F)c(F)c2)C2(CCN(C(=O)c3cc(C(F)(F)F)cc(C(F)(F)F)c3)CC2)O1 (racemic) [Example 2, (5RS)-9-(3,5-bis-trifluoromethyl-benzoyl)-5-(3,4-difluoro-phenyl)-1-oxa-3,9-diaza-spiro[5.5]undecan-2-one] | 1.7
3 | O=C1NCC(c2ccc(Cl)c(Cl)c2)C2(CCN(C(=O)c3cc(C(F)(F)F)cc(C(F)(F)F)c3)CC2)O1 (racemic) [Example 3, (5RS)-9-(3,5-bis-trifluoromethyl-benzoyl)-5-(3,4-dichloro-phenyl)-1-oxa-3,9-diaza-spiro[5.5]undecan-2-one] | 2.63
4 | O=C1NCC(c2ccccc2)C2(CCN(C(=O)c3cc(C(F)(F)F)cc(C(F)(F)F)c3)CC2)O1 (racemic) [Example 4, (5RS)-9-(3,5-bis-trifluoromethyl-benzoyl)-5-phenyl-1-oxa-3,9-diaza-spiro[5.5]undecan-2-one] | 5.13
5 | O=C1NCC(c2cccc(F)c2F)C2(CCN(C(=O)c3cc(C(F)(F)F)cc(C(F)(F)F)c3)CC2)O1 (racemic) [Example 5, (5RS)-9-(3,5-bis-trifluoromethyl-benzoyl)-5-(2,3-difluoro-phenyl)-1-oxa-3,9-diaza-spiro[5.5]undecan-2-one] | 8.51
6 | O=C1NCC(c2cc(F)ccc2F)C2(CCN(C(=O)c3cc(C(F)(F)F)cc(C(F)(F)F)c3)CC2)O1 (racemic) [Example 6, (5RS)-9-(3,5-bis-trifluoromethyl-benzoyl)-5-(2,5-difluoro-phenyl)-1-oxa-3,9-diaza-spiro[5.5]undecan-2-one] | 9.77
7 | Cc1ccccc1C1CNC(=O)OC12CCN(C(=O)c1cc(C(F)(F)F)cc(C(F)(F)F)c1)CC2 (racemic) [Example 7, (5RS)-9-(3,5-bis-trifluoromethyl-benzoyl)-5-o-tolyl-1-oxa-3,9-diaza-spiro[5.5]undecan-2-one] | 10.7
8 | O=C1NCC(c2ccc(Cl)cc2)C2(CCN(C(=O)c3cc(C(F)(F)F)cc(C(F)(F)F)c3)CC2)O1 (racemic) [Example 8, (5RS)-9-(3,5-bis-trifluoromethyl-benzoyl)-5-(4-chloro-phenyl)-1-oxa-3,9-diaza-spiro[5.5]undecan-2-one] | 11
9 | Cc1ccc(C2CNC(=O)OC23CCN(C(=O)c2cc(C(F)(F)F)cc(C(F)(F)F)c2)CC3)cc1C (racemic) [Example 9, (5RS)-9-(3,5-bis-trifluoromethyl-benzoyl)-5-(3,4-dimethyl-phenyl)-1-oxa-3,9-diaza-spiro[5.5]undecan-2-one] | 12.6
10 | COc1cccc(C2CNC(=O)OC23CCN(C(=O)c2cc(C(F)(F)F)cc(C(F)(F)F)c2)CC3)c1 (racemic) [Example 10, (5RS)-9-(3,5-bis-trifluoromethyl-benzoyl)-5-(3-methoxy-phenyl)-1-oxa-3,9-diaza-spiro[5.5]undecan-2-one] | 14.8
11 | O=C1NCC(c2ccccc2Cl)C2(CCN(C(=O)c3cc(C(F)(F)F)cc(C(F)(F)F)c3)CC2)O1 (racemic) [Example 11, (5RS)-9-(3,5-bis-trifluoromethyl-benzoyl)-5-(2-chloro-phenyl)-1-oxa-3,9-diaza-spiro[5.5]undecan-2-one] | 23.4
12 | CN1CCC(N2CC(c3ccccc3)C3(CCN(C(=O)c4cc(C(F)(F)F)cc(C(F)(F)F)c4)CC3)OC2=O)CC1 (racemic) [Example 12, (5RS)-9-(3,5-bis-trifluoromethyl-benzoyl)-3-(1-methyl-piperidin-4-yl)-5-phenyl-1-oxa-3,9-diaza-spiro[5.5]undecan-2-one] | 3.89
